This note sets out measurements from PMC12584752, “Covalent fragment screening to inhibit the E3 ligase activity of bacterial NEL enzymes SspH1 and SspH2” (RSC Chemical Biology, 2025).

What all share (assay): Intact LC-MS labelling selectivity
Common to all, as to assay type: binding
What all share (settings): dilution series 100–6.25 μM, 24 hours at 4 °C

In test [1] the target is T1, HECT-type E3 UBE3C (Homo sapiens, UniProt Q15386).
T1 construct: UBE3C; 693–1083; His-tag (N, cleaved yes); made in house; host or cells: E. coli BL21
T1 sequence (Q15386 693-1083): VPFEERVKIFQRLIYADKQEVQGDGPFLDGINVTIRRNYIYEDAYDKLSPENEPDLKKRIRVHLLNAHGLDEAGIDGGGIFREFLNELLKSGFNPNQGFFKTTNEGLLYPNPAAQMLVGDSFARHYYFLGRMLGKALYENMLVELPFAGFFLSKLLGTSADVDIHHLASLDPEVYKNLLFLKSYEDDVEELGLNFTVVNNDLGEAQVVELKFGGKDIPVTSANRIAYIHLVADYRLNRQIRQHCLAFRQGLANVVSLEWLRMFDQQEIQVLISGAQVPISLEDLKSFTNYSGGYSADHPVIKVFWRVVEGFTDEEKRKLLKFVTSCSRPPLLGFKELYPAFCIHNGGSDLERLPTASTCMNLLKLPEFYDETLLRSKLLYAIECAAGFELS
The protocol:
(§1) Fig. 3 Validation of HTC hit compounds by intact MS. Labelling heatmaps of dilution series (100–6.25 μM) of compounds 4–10 with (A) WT SspH1 and (B) C492K SspH1. Labelling heatmaps of dilution series of (C) compound 6 and (D) compound 7 with bacterial and human ubiquitin binding proteins. Recombinant proteins were incubated at either 1.0 or 0.5 μM with 50 μM fragments for 24 hours at 4 °C, before fragment labelling was analysed by intact LC-MS. Bacterial proteins are shown in bold and human proteins in italic fonts. (E)–(H) Kinetics analyses: time courses (0–12 hours) of compound labelling (100–1.56 μM) of SspH1 and SspH2 (0.5 μM) for (E) SspH1 and compound 7, and (F) SspH2 and compound 6. Measurements were performed in technical triplicates. Labelling percentages were plotted against time in GraphPad Prism v.10, and curves fitted separately for each replicate using one-phase association, with constraints Y0 = 0 and plateau = highest labelling percentage. Graphs for SspH1 and compound 6, and SspH2 and compound 7 are shown in Fig. S4A and B. Rate constants (kobs, as given by Graphpad Prism calculated K values) were plotted against fragment concentration in triplicate for (G) SspH1 and (H) SspH2. Straight lines were fitted with constraint Yintercept = 0. For SspH2 kinetics, 100 μM kobs was outside the linear range.
(§2) To mitigate the risk of selecting compounds which indiscriminately recognise ubiquitin binding proteins, we next performed preliminary selectivity studies with compounds 6 and 7 against human ubiquitin system proteins. […] In parallel, we tested the compounds against related NEL E3 ligases SspH2 and IpaH9.8. […] Our identification of dual SspH1 and SspH2 ligands is likely due to the high protein sequence similarity of SspH1 and SspH2 (60% for full length; 78% for NEL domains).
(§3) Dilution series experiments were performed as for 1st round screening. 1 μM OTUD4, OTUD5 or 0.5 μM HOIL, UbcH5A, SspH2, SspH1 C492K were incubated with 100–6.25 μM compounds for 24 hours at 4 °C, in 25 mM HEPES pH 7.5, 50 mM NaCl buffer. Intact protein LC-MS was performed as previously described.[40] The following deconvolution conditions were used for recombinant proteins studied in this work: […]

The target of test [2] is T2, DUB OTUD4 (Homo sapiens, UniProt Q01804).
T2 construct: OTUD4 aa 1–156; His-tag (N, cleaved yes); made in house; host or cells: E. coli BL21
T2 sequence (Q01804 1-156): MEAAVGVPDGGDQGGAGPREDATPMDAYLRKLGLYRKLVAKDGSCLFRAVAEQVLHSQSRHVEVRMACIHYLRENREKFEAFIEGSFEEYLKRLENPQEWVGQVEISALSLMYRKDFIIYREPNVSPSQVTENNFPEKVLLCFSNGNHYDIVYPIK
On the procedure:
as §1, §2, §3

Test [3] has as its target T3, human E2 UbcH5A (Homo sapiens, UniProt P51668).
T3 construct: UbcH5A aa 1–147; His-tag (N, cleaved yes); made in house; host or cells: E. coli BL21
On the procedure: as §1, §2, §3

Test [4] has as its target T4, DUB OTUD5 (Homo sapiens, UniProt Q96G74).
T4 construct: OTUD5 aa 172–351; His-tag (N, cleaved yes); made in house; host or cells: E. coli BL21
T4 sequence (Q96G74 172-351): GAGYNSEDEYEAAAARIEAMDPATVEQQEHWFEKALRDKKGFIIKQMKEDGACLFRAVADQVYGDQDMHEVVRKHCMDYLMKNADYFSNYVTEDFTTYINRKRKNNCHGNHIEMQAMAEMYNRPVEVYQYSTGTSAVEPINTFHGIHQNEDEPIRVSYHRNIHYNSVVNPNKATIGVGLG
The protocol: as §1, §2, §3

Test [5] concerns the target T5, RBR-type E3 HOIL (Homo sapiens, UniProt Q9BYM8).
T5 construct: HOIL aa 1–510; His-tag (N, cleaved yes); made in house; host or cells: E. coli BL21
T5 sequence (Q9BYM8 1-510): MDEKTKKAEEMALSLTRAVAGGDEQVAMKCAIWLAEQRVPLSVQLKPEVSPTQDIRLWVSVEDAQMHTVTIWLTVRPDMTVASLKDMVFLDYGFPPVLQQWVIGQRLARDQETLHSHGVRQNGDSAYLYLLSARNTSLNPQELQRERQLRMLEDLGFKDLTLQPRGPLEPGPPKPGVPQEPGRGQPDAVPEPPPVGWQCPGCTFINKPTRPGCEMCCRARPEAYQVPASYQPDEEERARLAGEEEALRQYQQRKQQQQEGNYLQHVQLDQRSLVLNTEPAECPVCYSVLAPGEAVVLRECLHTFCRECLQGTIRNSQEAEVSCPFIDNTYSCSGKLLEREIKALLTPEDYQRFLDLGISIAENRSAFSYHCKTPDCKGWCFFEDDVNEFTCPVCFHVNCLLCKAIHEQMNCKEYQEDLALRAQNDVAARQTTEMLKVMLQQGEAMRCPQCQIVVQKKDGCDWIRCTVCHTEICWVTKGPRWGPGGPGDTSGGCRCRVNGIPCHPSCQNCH
The protocol:
as §1, §2, §3

SMILES strings stand for the structures. Entries after “also recorded” stand apart in the source; their conditions may differ.

T3 sequence (P51668 whole entry, the tested form may be a part): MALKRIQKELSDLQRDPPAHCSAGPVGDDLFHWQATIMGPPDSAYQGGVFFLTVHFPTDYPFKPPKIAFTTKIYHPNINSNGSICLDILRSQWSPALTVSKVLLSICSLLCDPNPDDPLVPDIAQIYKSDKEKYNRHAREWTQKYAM

Turning to `Cc1cc(-c2nc3ccccc3n2C2CCN(C(=O)CCl)CC2)cc(C)c1O.Cl` [compound 6], the “labelling of UBE3C” value in test [1] is “minimal or no labelling”. Moreover, in test [2], the “labelling of OTUD4” value is reported as “minimal or no labelling”. Besides, in test [3], the “labelling of UbcH5A” value was “minimal or no labelling; also recorded: not labelled”. In addition, in test [4], the “labelling of OTUD5” value was “minimal or no labelling”. Further, the “labelling of HOIL” value in test [5] is “minimal or no labelling”.
`Cl.O=C(CCl)N1CCC(n2c(-c3ccc(C(F)(F)F)cc3)nc3ccccc32)CC1` [compound 7]: in test [1], the “labelling of UBE3C” value was “minimal or no labelling”. Besides, in test [2], the “labelling of OTUD4” value is “minimal or no labelling”. For the same compound, the “labelling of UbcH5A” value in test [3] is recorded as “minimal or no labelling; also recorded: not labelled”. The “labelling of OTUD5” value in test [4] was “minimal or no labelling”. For the same compound, the “labelling of HOIL” value in test [5] is “minimal or no labelling”.
